The values below are quoted from earlier work in patent US7592331B2, “Macrocyclic factor VIIa inhibitors useful as anticoagulants” (Bristol-Myers Squibb Company, priority 2005, dated 2009).

The subject of data set [1] is patients with acute coronary syndromes.
Data set [2] deals with patients undergoing coronary angioplasty.
In data set [3] the test system is patients undergoing total knee replacement.

With “recombinant nematode anticoagulant protein c2 [rNAPc2]”, the “magnitude and duration of ischemic events” value in data set [1] is “reduces magnitude and duration of ischemic events”. Besides, the systemic thrombin generation result in data set [2] is “reduces systemic thrombin generation”. The deep vein thrombosis entry in data set [3] is recorded as “prevents deep vein thrombosis”.
